In ChEMBL document CHEMBL1140460, “Design, synthesis, and biological evaluation of triazolopiperazine-based beta-amino amides as potent, orally active dipeptidyl peptidase IV (DPP-4) inhibitors” (Bioorg Med Chem Lett, 2007):

Tests used:
[1] = molecular target: Dipeptidyl peptidase 9 (Homo sapiens, UniProt Q86TI2); experiment: Inhibition of DPP9
[2] = Plasma clearance in rat; type: ADME, organism-based
[3] = (§1) Half life in rat; type: ADME, organism-based; details: in vivo
[4] = Oral bioavailability in rat; type: ADME, organism-based; details: in vivo
[5] = molecular target: Dipeptidyl peptidase 2 (Homo sapiens, UniProt Q9UHL4); experiment: Inhibition of QPP
[6] = molecular target: Dipeptidyl peptidase 8 (Homo sapiens, UniProt Q6V1X1); experiment: Inhibition of DPP8
[7] = molecular target: Dipeptidyl peptidase 4 (Homo sapiens, UniProt P27487)
[8] = Plasma clearance in dog; type: ADME, organism-based, Canis lupus familiaris
[9] = Plasma clearance in rhesus monkey; type: ADME, organism-based, Macaca mulatta
[10] = species on record: Rattus norvegicus; experiment: as §1; type: ADME, organism-based; details: in vivo
[11] = Half life in dog; type: ADME, organism-based, Canis lupus familiaris; details: in vivo
[12] = Half life in rhesus monkey; type: ADME, organism-based, Macaca mulatta; details: in vivo
[13] = Oral bioavailability in dog; type: ADME, organism-based, Canis lupus familiaris; details: in vivo
[14] = Oral bioavailability in rhesus monkey; type: ADME, organism-based, Macaca mulatta; details: in vivo
[15] = tested on: Mus musculus; experiment: Reduction of blood glucose excursion in lean mouse at 0.1 mg/kg by oral glucose tolerance test; type: functional; parameters: scale not given: the % may be the effect or the level left
[16] = tested on: Mus musculus; experiment: Reduction of blood glucose excursion in lean mouse at 3.0 mg/kg by oral glucose tolerance test; type: functional; parameters: scale not given: the % may be the effect or the level left
[17] = tested on: Mus musculus; experiment: Reduction of blood glucose excursion in lean mouse at 1.0 mg/kg by oral glucose tolerance test; type: functional; parameters: scale not given: the % may be the effect or the level left

Dipeptidyl peptidase 8, sequence (Q6V1X1 whole entry): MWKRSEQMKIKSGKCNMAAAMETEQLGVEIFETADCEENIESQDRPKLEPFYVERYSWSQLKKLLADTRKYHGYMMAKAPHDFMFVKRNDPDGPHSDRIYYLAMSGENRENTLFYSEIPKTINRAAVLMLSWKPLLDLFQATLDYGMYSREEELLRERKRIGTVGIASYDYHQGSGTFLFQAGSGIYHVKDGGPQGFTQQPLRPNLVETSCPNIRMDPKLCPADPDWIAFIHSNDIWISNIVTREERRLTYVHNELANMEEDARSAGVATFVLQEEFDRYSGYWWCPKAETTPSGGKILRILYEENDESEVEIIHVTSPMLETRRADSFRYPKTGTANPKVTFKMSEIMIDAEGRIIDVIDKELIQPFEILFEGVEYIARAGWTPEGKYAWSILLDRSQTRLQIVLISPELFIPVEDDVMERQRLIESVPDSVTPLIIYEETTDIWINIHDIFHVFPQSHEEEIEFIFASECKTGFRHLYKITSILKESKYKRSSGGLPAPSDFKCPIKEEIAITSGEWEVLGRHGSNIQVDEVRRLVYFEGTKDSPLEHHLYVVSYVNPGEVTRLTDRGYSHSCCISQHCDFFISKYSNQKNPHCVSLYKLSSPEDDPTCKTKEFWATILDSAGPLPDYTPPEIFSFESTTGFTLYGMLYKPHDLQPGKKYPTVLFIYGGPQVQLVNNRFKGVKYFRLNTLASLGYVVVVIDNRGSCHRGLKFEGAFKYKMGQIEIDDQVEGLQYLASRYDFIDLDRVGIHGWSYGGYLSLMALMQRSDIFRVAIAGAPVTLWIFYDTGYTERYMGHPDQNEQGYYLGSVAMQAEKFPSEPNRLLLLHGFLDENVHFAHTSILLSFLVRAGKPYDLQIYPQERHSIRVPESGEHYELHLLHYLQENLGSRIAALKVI
Dipeptidyl peptidase 9, sequence (Q86TI2 whole entry): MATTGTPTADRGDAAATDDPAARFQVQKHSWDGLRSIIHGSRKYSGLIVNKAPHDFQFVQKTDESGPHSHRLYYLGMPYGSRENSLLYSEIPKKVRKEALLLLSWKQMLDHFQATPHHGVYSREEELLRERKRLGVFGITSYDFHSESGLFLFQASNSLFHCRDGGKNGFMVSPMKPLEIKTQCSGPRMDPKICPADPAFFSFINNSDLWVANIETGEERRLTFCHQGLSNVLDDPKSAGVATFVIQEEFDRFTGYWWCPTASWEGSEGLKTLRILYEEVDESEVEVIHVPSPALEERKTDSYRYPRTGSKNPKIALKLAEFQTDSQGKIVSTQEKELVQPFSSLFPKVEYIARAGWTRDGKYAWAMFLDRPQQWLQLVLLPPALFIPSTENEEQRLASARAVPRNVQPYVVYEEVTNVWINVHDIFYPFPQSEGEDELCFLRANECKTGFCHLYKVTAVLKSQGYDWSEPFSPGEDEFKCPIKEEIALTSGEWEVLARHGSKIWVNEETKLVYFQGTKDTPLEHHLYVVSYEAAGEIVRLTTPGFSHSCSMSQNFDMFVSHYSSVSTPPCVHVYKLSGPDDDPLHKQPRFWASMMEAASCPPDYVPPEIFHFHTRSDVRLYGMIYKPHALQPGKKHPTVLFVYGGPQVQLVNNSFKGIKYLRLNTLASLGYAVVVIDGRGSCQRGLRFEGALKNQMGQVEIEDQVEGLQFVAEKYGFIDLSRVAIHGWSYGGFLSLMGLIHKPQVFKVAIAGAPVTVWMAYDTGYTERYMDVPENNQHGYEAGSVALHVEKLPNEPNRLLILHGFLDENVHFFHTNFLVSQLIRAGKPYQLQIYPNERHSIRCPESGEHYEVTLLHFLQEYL
Dipeptidyl peptidase 4, sequence (P27487 whole entry): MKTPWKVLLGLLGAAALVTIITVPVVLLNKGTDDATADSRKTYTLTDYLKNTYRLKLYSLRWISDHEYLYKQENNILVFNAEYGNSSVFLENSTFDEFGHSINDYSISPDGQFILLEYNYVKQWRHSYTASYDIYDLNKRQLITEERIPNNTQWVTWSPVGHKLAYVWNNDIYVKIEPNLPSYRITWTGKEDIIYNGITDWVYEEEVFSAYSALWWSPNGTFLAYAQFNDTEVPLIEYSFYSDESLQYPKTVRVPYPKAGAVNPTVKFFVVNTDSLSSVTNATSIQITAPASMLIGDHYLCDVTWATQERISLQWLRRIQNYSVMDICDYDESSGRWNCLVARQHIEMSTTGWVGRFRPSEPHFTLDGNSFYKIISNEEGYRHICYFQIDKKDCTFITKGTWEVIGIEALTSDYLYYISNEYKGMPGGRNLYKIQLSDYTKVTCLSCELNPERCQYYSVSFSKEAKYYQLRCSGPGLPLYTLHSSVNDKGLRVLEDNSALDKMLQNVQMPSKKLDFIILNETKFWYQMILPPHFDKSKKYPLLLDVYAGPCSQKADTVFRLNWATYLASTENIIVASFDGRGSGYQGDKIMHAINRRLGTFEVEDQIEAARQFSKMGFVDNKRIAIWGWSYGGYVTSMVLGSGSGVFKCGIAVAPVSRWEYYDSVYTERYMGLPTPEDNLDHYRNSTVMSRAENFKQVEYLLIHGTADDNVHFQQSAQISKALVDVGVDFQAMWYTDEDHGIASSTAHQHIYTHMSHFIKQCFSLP

Row | Structure (SMILES) | IC50 [1] [µM] | clearance [2] [mL/min/kg] | half-life [3] [h] | bioavailability [4] [%] | IC50 [5] [µM] | IC50 [6] [µM] | IC50 [7] [µM] | further results
1 | N[C@@H](CC(=O)N1CCn2nc(C(F)(F)F)nc2[C@@H]1C(O)C1CC1)Cc1cc(F)c(F)cc1F (some centres not stated) [listing 1 of 2 here] | > 100 | 97 | 3.9 | 63 |  |  |  | 
2 | N[C@@H](CC(=O)N1CCn2nc(C(F)(F)F)nc2[C@@H]1C(F)C1CC1)Cc1cc(F)c(F)cc1F (stereo in doubt; 34c) |  |  |  |  | 5.77 | > 100 | 0.018 | 
3 | N[C@@H](CC(=O)N1CCn2nc(-c3ccccc3)nc2C1)Cc1cc(F)c(F)cc1F | > 100 |  |  |  |  |  |  | 
4 | N[C@@H](CC(=O)N1CCn2nc(C(F)(F)F)nc2[C@@H]1C(F)C1CC1)Cc1cc(F)c(F)cc1F (stereo in doubt; 34d) |  |  |  |  | 4.1 | > 100 | 0.011 | 
5 | N[C@@H](CC(=O)N1CCn2nc(C(F)(F)F)nc2C1Cn1cccn1)Cc1cc(F)c(F)cc1F (some centres not stated) | > 100 | 142 | 2.3 | 62 | 9.6 | > 100 |  | 
6 | N[C@@H](CC(=O)N1CCn2nc(C(F)(F)F)nc2[C@H]1Cc1ccc(F)cc1)Cc1cc(F)c(F)cc1F |  | 76 | 2.7 | 32 |  |  |  | 
7 | N[C@@H](CC(=O)N1CCn2ncnc2C1)Cc1cc(F)c(F)cc1F | > 100 |  |  |  | > 100 | > 100 | 0.1 | 
8 | N[C@@H](CC(=O)N1CCn2nc(C(F)(F)F)nc2C1Cn1ccnc1)Cc1cc(F)c(F)cc1F (some centres not stated) |  | 97 | 9 | 7.1 | 26 | > 100 |  | 
9 | N[C@@H](CC(=O)N1CCn2nc(C(F)(F)F)nc2[C@@H]1C(O)C1CC1)Cc1cc(F)c(F)cc1F (some centres not stated) [listing 2 of 2 here] | > 100 | 91 | 5.1 | 51 |  |  |  | 
10 | N[C@@H](CC(=O)N1CCn2nc(C(F)(F)F)nc2C1Cn1cncn1)Cc1cc(F)c(F)cc1F (some centres not stated) | > 100 | 129 | 2.8 | 13 | 49 | > 100 | 0.005 | 
11 | N[C@@H](CC(=O)N1CCn2nc(C(F)(F)F)nc2[C@H]1Cn1cncn1)Cc1cc(F)c(F)cc1F | > 100 |  |  |  | 22 | > 100 | 0.002 | 

Now from value to compound, other results behind:

Row | IC50 [1] [µM] | clearance [2] [mL/min/kg] | half-life [3] [h] | bioavailability [4] [%] | IC50 [5] [µM] | IC50 [6] [µM] | IC50 [7] [µM] | Structure (SMILES) | further results
12 |  | 60 |  |  |  |  |  | N[C@@H](CC(=O)N1CCn2c(nnc2C(F)(F)F)C1)Cc1cc(F)c(F)cc1F [SITAGLIPTIN] | clearance [8]: 6 mL/min/kg; clearance [9]: 28 mL/min/kg; t1/2 [10]: 1.7 h; half-life [11]: 4.9 h; half-life [12]: 3.7 h; bioavailability [13]: 100%; bioavailability [14]: 68%
13 | > 100 | 68 | 4 | 74 | 25 | > 100 |  | C[C@@H]1c2nc(C(F)(F)F)nn2CCN1C(=O)C[C@H](N)Cc1cc(F)c(F)cc1F | clearance [8]: 1 mL/min/kg; clearance [9]: 16 mL/min/kg; half-life [11]: 26 h; half-life [12]: 7.7 h; bioavailability [13]: 67%; bioavailability [14]: 65%; Activity [15]: 14%; Activity [16]: 44%; Activity [17]: 39%
14 | > 100 |  |  |  | > 100 | > 100 |  | N[C@@H](CC(=O)N1CCn2nc(C3CC3)nc2C1)Cc1cc(F)c(F)cc1F | 
15 | > 100 | 60 | 3.6 | 100 |  |  |  | N[C@@H](CC(=O)N1CCn2nc(C(F)(F)F)nc2C1)Cc1cc(F)c(F)cc1F | 
16 | > 100 |  |  |  | 72 | > 100 |  | C[C@H]1c2nc(C(F)(F)F)nn2CCN1C(=O)C[C@H](N)Cc1cc(F)c(F)cc1F | 
